Source: patent publication US12589078B2, “Lipid nanoparticles for delivery of nucleic acids” (CureVac SE, priority 2019, dated 2026)
Where “and” joins values, the source holds several entries; their conditions need not be identical. Identical values can stand only once. Like-named read-outs stand apart in the source and are kept apart here.

Legend:
rabies virus = type: in vivo, mice; settings: all animals, day 21 after prime
[1] = system: malaria [NANP]7 peptide or C-terminus peptides; assay: Malaria CSP mRNA vaccination: ELISA endpoint titers; type: in vivo, mice; settings: CSP mRNA i.m., day 35 post prime, Example 22
Description: The mRNA was further enzymatically capped using ScriptCap™ m7G Capping System (CellScript, Madison,WI., USA) according to the manufacturer's instructions and enzymatically polyadenylated using a commercial polyadenylation kit, resulting in SEQ ID NO:38.
The GN01-LNP formulations were applied on days 0 and 21 intramuscularly (i.m.; musculus tibialis) with doses of RNA, formulations, and control groups as shown in Table Ex-20. A negative control group received vaccinations with an irrelevant RNA, formulated in GN01-LNPs. Serum samples were taken at day 21 and day 35 for ELISA.
ELISA was performed using malaria [NANP]7 peptide or C-terminus peptides for coating. Coated plates were incubated using respective serum dilutions, and binding of specific antibodies to the respective malaria [NANP]7 or C-terminus peptide were detected using biotinylated isotype specific anti-mouse antibodies followed by streptavidin-HRP (horse radish peroxidase) with Amplex™ Red Reagent as substrate. Endpoint titers of antibodies (IgG1, IgG2a) directed against the malaria [NANP]7 or C-terminus peptide were measured by ELISA on day 21 and day 35 post prime. […]
ELISA was performed using malaria [NANP]7 peptide for coating. […] Endpoint titers of antibodies (total IgG or IgG as indicated in the respective Figures) directed against the malaria [NANP]7 peptide were measured by ELISA on day 35 post prime.

tumor antigen Trp2 [2] = assay: Trp2 mRNA vaccination i.d.: T-cell response (TNFα+/IFNγ+ CD4+/CD8+); settings: C57/BL6 mice, day 0, 7, 14
[3] = Particle size and PDI by dynamic light scattering (Malvern Zetasizer Nano); type: physicochemical
tumor antigen Trp2 [4] = assay: Trp2 mRNA vaccination i.d.: IgG1/IgG2 endpoint titers (ELISA); settings: C57/BL6 mice, day 0, 7, 14
[5] = Zeta potential by Laser Doppler Microelectrophoresis; type: physicochemical

## Cc1c(C)c2c(c(C)c1OC(=O)CCC(=O)OCCC1CCN(CCSCCN3CCC(CCOC(=O)CCC(=O)Oc4c(C)c(C)c5c(c4C)CC[C@@](C)(CCC[C@H](C)CCC[C@H](C)CCCC(C)C)O5)CC3)CC1)CC[C@@](C)(CCC[C@H](C)CCC[C@H](C)CCCC(C)C)O2 [Lipid C26, VitE-C4DE-Piperidine-Thioether]
Rabies virus; single i.m. 1 μg RABV-G-mRNA
  VNTs: > 0.5 IU/ml
[1]
  IgG1 endpoint titers ([NANP]7 peptide): very strong humoral immune responses

## CCN1CCC(CCOC(=O)C(CCSSCCC(NC(=O)CC(=O)Oc2c(C)c(C)c3c(c2C)CCC(C)(CCCC(C)CCCC(C)CCCC(C)C)O3)C(=O)OCCC2CCN(CC)CC2)NC(=O)CC(=O)Oc2c(C)c(C)c3c(c2C)CCC(C)(CCCC(C)CCCC(C)CCCC(C)C)O3)CC1 (centres unmarked) [Lipid C10, VitE-C4DE-CysPipSS]
Tumor antigen Trp2 [2]
  T-cell responses: low T-cell responses
[3]
  PDI: 0.50 and 0.34
  size: 103 nm and 67 nm
Tumor antigen Trp2 [4]
  IgG1 and IgG2 titers: stable IgG1 and IgG2 titers
[5]
  zeta potential: 36.00 mV and 26.00 mV

## CCCCCCCCC(CCCCCC)COC(=O)CCCC(=O)OCCC1CCN(CCSSCCN2CCC(CCOC(=O)CCCC(=O)OCC(CCCCCC)CCCCCCCC)CC2)CC1 (centres unmarked) [Lipid C2, O1-[2-[1-[2-[2-[4-[2-[5-(2-hexyldecoxy)-5-oxo-pentanoyl]oxyethyl]-1-piperidyl]ethyldisulfanyl]ethyl]-4-piperidyl]ethyl] 05-(2-hexyldecyl) pentanedioate]
Rabies virus; single i.m. 5 μg RABV-G-mRNA
  VNTs: > 0.5 IU/ml
